{"source": "patent US12157772B2", "about": "“Prophylactic agent, onset-suppressing agent or therapeutic agent for progressive immune demyelinating diseases” (NATIONAL CENTER OF NEUROLOGY AND PSYCHIATRY, priority 2016, dated 2024)", "molecules": {"B1": {"name": "prolactin: recombinant prolactin added to Th cell cultures (protein, UniProt P01236 29-227, looked up)", "Prolactin": "LPICPGGAARCQVTLRDLFDRAVVLSHYIHNLSSEMFSEFDKRYTHGRGFITKAINSCHTSSLATPEDKEQAQQMNQKDFLSLIVSILRSWNEPLYHLVTEVRGMQEAPEAILSKAVEIEEQTKRLLEGMELIVSQVHPETKENEIYPVWSGLPSLQMADEESRLSAYYNLLHCLRRDSHKIDNYLKLLKCRIIHNNNC"}}, "key": {"[1]": {"system": "CD4+ T cells, CD19+ B cells, CD19-CD45hi non-B/class II+ antigen-presenting cells infiltrated into the CNS", "assay": "Eomes and Zbtb20 expression in CNS-infiltrated cells after L-dopa dosing (FACS)", "assay_type": "in vivo, mouse", "conditions": "CNS at day 32 after the induction", "from_the_text": "(§1) Into each CD4-Cre/NR4A2^fl/fl mouse in which monophasic EAE had been induced in a similar manner to the above 1.(3), L-dopa or a placebo (DMSO and PBS) was intraperitoneally injected every other day from day 4 after the induction.\nNext, the brain and the spinal cord were collected from each mouse at day 32 after the induction; and CD4^+ T cells, CD19^+ B cells, or CD19^−CD45^hi non-B/class II^+ antigen-presenting cells infiltrated into the CNS were sorted by FACS using a FACS ARIA II (manufactured by BD Cytometry Systems, Inc.). The respective sorted cells were stained and analyzed regarding the Eomes and Zbtb20 gene expressions. As antibodies used at the detection were an anti-CD4 antibody (manufactured by Biolegend, Inc.), an anti-Eomes antibody (manufactured by eBioscience, Inc.), an anti-CD19 antibody (manufactured by Biolegend, Inc.), and an anti-Zbtb20 antibody (manufactured by Becton Dickinson, Inc.)."}, "[2]": {"system": "NR4A2-deficient mouse in which monophasic EAE had been induced", "assay": "EAE clinical score in NR4A2-deficient mice with induced monophasic EAE", "assay_type": "in vivo", "from_the_text": "as §1"}, "prolactin gene (Prl)": {"system": "prolactin gene (Prl)", "assay": "Prolactin gene (Prl) expression in CNS-derived antigen-presenting cells after L-dopa dosing (quantitative real-time PCR)", "assay_type": "in vivo, mouse", "conditions": "CNS-derived B cells and non-B/class II+ antigen-presenting cells; repeated dosing; FIG. 25", "protocol": "Next, CD19^+ B cells and CD19^−CD45^hi non-B/class II^+ antigen-presenting cells were separated from the CNS or the spleen of each L-dopa-administered mouse or each intact mouse; and the expression levels of prolactin gene (Prl) in these types of cells were analyzed by using a quantitative real-time PCR assay. As antibodies used at the detection were an anti-CD19 antibody (manufactured by Biolegend, Inc.) and an anti-CD45 antibody (manufactured by Biolegend, Inc.)."}, "[3]": {"system": "CD19+ B cells or CD19-CD45hi non-B/class II+ antigen-presenting cells", "conditions": "CD19+ B cells and CD19-CD45hi non-B class II+ cells; cultured 24, 48 or 96 h with dopamine; FIG. 22", "protocol": "CD19^+ B cells or CD19^−CD45^hi non-B/class II^+ antigen-presenting cells were purified from each mouse with the late-stage EAE pathology by sorting by FACS. The respective purified cells were cultured for 24, 48, or 96 h in the absence of dopamine or in the presence of a specific amount of dopamine. Next, the cultured cells were recovered and the prolactin gene (Prl) and Zbtb20 gene expression levels were analyzed by using a quantitative real-time PCR assay."}, "[4]": {"system": "Spleen-derived CD19+ B cells", "assay": "Zbtb20 expression in spleen-derived CD19+ B cells cultured with LPS and various cytokines", "assay_type": "cell-based, mouse", "conditions": "cultured for 24 h in the presence of LPS and cytokine; FIG. 33", "protocol": "Spleen-derived CD19^+ B cells were isolated and purified by sorting by FACS using a FACS ARIA II (manufactured by BD Cytometry Systems, Inc.). The purified B cells were cultured for 24 h in the presence of LPS and in the co-presence or absence of each cytokine designated in FIG. 33(a). After the culturing, the expression levels of Zbtb20 gene in the respective cells were measured. As antibodies used at the detection were an anti-CD19 antibody (manufactured by Biolegend, Inc.) and an anti-Zbtb20 antibody (manufactured by Becton Dickinson, Inc.)."}, "[5]": {"system": "Spleen-derived CD226+ Th cells", "assay": "Prolactin addition and Eomes protein expression in spleen-derived CD226+ Th cells (FACS)", "assay_type": "cell-based, mouse", "conditions": "cultured for 48 h in the presence of prolactin; FIG. 16", "protocol": "Spleen-derived CD226^+ Th cells were cultured for 8 h or 48 h in the absence or presence of prolactin. After the culturing, the CD226^+ Th cells were stained with an anti-CD226 antibody and an anti-Eomes antibody, and a FACS CANTO II (manufactured by BD Cytometry Systems, Inc.) was used to analyze CD226^+Eomes^+ T cells, CD226^+ Eomes^− T cells, and CD226^− T cells. As the antibodies used during the analysis were an anti-CD226 antibody (manufactured by Biolegend, Inc.) and an anti-Eomes antibody (manufactured by Biolegend, Inc.)."}, "Spleen-derived Th cells": {"system": "Spleen-derived Th cells", "assay": "Prolactin addition and Eomes gene expression in spleen-derived Th cells (quantitative real-time PCR)", "assay_type": "cell-based, mouse", "conditions": "cultured 8 h; recombinant prolactin at low and high concentration; FIG. 15", "protocol": "Spleen-derived Th cells of each intact mouse were cultured for 8 h in the absence or presence of recombinant prolactin. After the culturing, total RNA was extracted from the Th cells. A first strand cDNA synthesis kit (manufactured by Takara Bio Inc.) was used to synthesize cDNA from the total RNA obtained. A Light Cycler instrument was used under conditions using a Light Cycler-Fast Start DNA Master SYBR Green I kit (manufactured by Roche Diagnostics, Inc.) or an ABI 7300 real-time PCR instrument was used under conditions using a Power SYBR Green Master mix (manufactured by Applied Biosystems, Inc.) to perform a quantitative real-time PCR assay by using commercially available primers (QuantiTect Primer Assay, QT01074332; manufactured by Qiagen, Inc.). The Eomes gene expression levels were corrected based on the expression level of a housekeeping gene GAPDH."}, "[6]": {"system": "Spleen-derived CD226+CD4+ T cells", "assay": "Culturing of spleen-derived CD226+CD4+ T cells in co-presence of prolactin, Eomes expression (flow cytometer / quantitative real-time PCR)", "assay_type": "cell-based, mouse", "protocol": "Spleen-derived CD226^+CD4^+ T cells collected from each intact wild-type B6 mouse were cultured for 4 h or 8 h in the absence of prolactin or in the presence of each specific amount of prolactin. The Eomes expression levels in the respective cells after the culturing were measured by using a flow cytometer or a quantitative real-time PCR assay. As antibodies used at the detection were an anti-CD4 antibody (manufactured by Biolegend, Inc.) and an anti-Eomes antibody (manufactured by eBioscience, Inc.)."}}}
{"molecule": "N[C@@H](Cc1ccc(O)c(O)c1)C(=O)O", "note": "[L-dopa, L-3,4-dihydroxyphenylalanine]", "values": [{"measurement": "percentage of CD4+Eomes+ T cells in the CD4+ T cells", "setting": "[1]; FIG. 24(a)", "result": "decrease markedly"}, {"measurement": "percentage of Zbtb20+ cells in the CD19+ B cells", "setting": "[1]; FIG. 24(b)", "result": "decrease"}, {"measurement": "percentage of Zbtb20+ cells in the CD19-CD45hi non-B/class II+ antigen-presenting cells", "setting": "[1]; FIG. 24(c)", "result": "decrease"}, {"measurement": "cumulative EAE scores", "setting": "[2]; intraperitoneally every other day from day 4, right graph of FIG. 23", "result": "improvement"}, {"measurement": "EAE scores", "setting": "[2]; intraperitoneally every other day from day 4 after the induction, FIG. 23", "result": "improve markedly"}, {"measurement": "expression levels of prolactin gene", "setting": "prolactin gene (Prl)", "result": "decrease"}]}
{"molecule": "NCCc1ccc(O)c(O)c1", "note": "[dopamine]", "values": [{"measurement": "Zbtb20 gene expression levels", "setting": "[3]", "result": "decreased markedly"}, {"measurement": "prolactin gene expression levels", "setting": "[3]", "result": "decreased markedly"}]}
{"molecule": "IFNα", "values": [{"measurement": "increase in the expression of Zbtb20 gene", "setting": "[4]", "result": "the most remarkable"}]}
{"molecule": "B1", "values": [{"measurement": "Eomes expression levels", "setting": "[5]", "result": "increased more markedly"}, {"measurement": "relative expression level of Eomes relative to that of a housekeeping gene", "setting": "Spleen-derived Th cells", "result": "increased in a prolactin concentration-dependent fashion"}, {"measurement": "Eomes gene expression level", "setting": "[6]; prolactin at 30 ng/mL, FIG. 8(b)", "result": "increased"}, {"measurement": "percentage of CD4+Eomes+ T cells", "setting": "[6]; prolactin at 30 or 100 ng/mL, cultured 4 h or 8 h, FIG. 7, 8(a)", "result": "increased markedly"}]}
